Data: PubChem BioAssay (NCI)
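Test compounds were applied to cells in 96-well plates for 48 hours at 5 doses. Here, GI50 denotes the concentration required for 50% inhibition of growth. Definition used: TGI = concentration required for complete inhibition of growth.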

Key:
Assay in all cases: inhibition of tumour cell growth, NCI panel, 48 h; in the data active = GI50 below about 0.43 µM; inactive = the rest
[1] = system: UACC-62 melanoma
[2] = system: OVCAR-4 ovarian
[3] = system: LOX IMVI melanoma
[4] = system: UO-31 renal
[5] = system: OVCAR-3 ovarian
[6] = system: SF-268 CNS
[7] = system: SR leukemia
[8] = system: M14 melanoma
[9] = system: NCI/ADR-RES ovarian
[10] = system: RPMI-8226 leukemia
[11] = system: MDA-MB-231 breast
[12] = system: HCT-116 colon
[13] = system: HT29 colon
[14] = system: SF-295 CNS
[15] = system: MDA-MB-435
[16] = system: RXF 393 renal
[17] = system: HS 578T breast
[18] = system: SNB-19 CNS
[19] = system: U251 CNS
[20] = system: NCI-H522 lung
[21] = system: SN12C renal
[22] = system: K-562 leukemia
[23] = system: HOP-62 NSCLC
[24] = system: OVCAR-8 ovarian
[25] = system: SK-MEL-2 melanoma
[26] = system: DU-145 prostate
[27] = system: KM12 colon
[28] = system: NCI-H460 lung
[29] = system: OVCAR-5 ovarian
[30] = system: SK-MEL-28 melanoma
[31] = system: MOLT-4 leukemia
[32] = system: NCI-H226 lung
[33] = system: MDA-MB-468 breast
[34] = system: CAKI-1 renal
[35] = system: IGROV1 ovarian
[36] = system: MALME-3M melanoma
[37] = system: UACC-257 melanoma
[38] = system: BT-549 breast
[39] = system: SW-620 colon
[40] = system: HCC-2998 colon
[41] = system: HL-60(TB) leukemia
[42] = system: PC-3 prostate
[43] = system: HCT-15 colon
[44] = system: A549 NSCLC
[45] = system: 786-0 renal
[46] = system: SF-539 CNS
[47] = system: SK-OV-3 ovarian
[48] = system: SK-MEL-5 melanoma
[49] = system: COLO 205 colon
[50] = system: T-47D breast
[51] = system: CCRF-CEM leukemia
[52] = system: NCI-H23 lung
[53] = system: EKVX NSCLC
[54] = system: ACHN renal
[55] = system: MCF7 breast
[56] = system: A498 renal
[57] = system: TK-10 renal

CN1CCN(c2ccc(C(=O)/C=C/c3ccc(Br)cc3)cc2)CC1
98 µM: TGI [15]
78.5 µM: TGI [22]
50.6 µM: TGI [3]
95.5 µM: TGI [51]
46.7 µM: TGI [38]
38.2 µM: TGI [1]
> 100 µM: TGI [2] | TGI [4] | TGI [6] | TGI [8] | TGI [9] | TGI [11] | TGI [13] | TGI [14] | TGI [16] | TGI [17] | TGI [18] | TGI [19] | TGI [20] | TGI [21] | TGI [23] | TGI [24] | TGI [25] | TGI [26] | TGI [27] | TGI [28] | TGI [29] | TGI [30] | TGI [31] | TGI [32] | TGI [34] | TGI [35] | TGI [36] | TGI [37] | TGI [39] | TGI [42] | TGI [43] | TGI [44] | TGI [45] | TGI [46] | TGI [47] | TGI [48] | TGI [49] | TGI [50] | TGI [52] | TGI [53] | TGI [54] | TGI [55] | TGI [56] | TGI [57]
inactive: GI50 [1] 17.1 µM | GI50 [2] 70.8 µM | GI50 [3] 13.7 µM | GI50 [4] 16.9 µM | GI50 [5] 24.4 µM | GI50 [6] > 100 µM | GI50 [7] 8.37 µM | GI50 [8] 36.6 µM | GI50 [9] 76 µM | GI50 [10] 5.38 µM | GI50 [11] > 100 µM | GI50 [12] 3.54 µM | GI50 [13] 15.8 µM | GI50 [14] 41.3 µM | GI50 [15] 22.4 µM | GI50 [16] 17.2 µM | GI50 [17] > 100 µM | GI50 [18] > 100 µM | GI50 [19] 20.8 µM | GI50 [20] > 100 µM | GI50 [21] 22.7 µM | GI50 [22] 6.96 µM | GI50 [23] > 100 µM | GI50 [24] 54.9 µM | GI50 [25] > 100 µM | GI50 [26] 86.6 µM | GI50 [27] 16.6 µM | GI50 [28] > 100 µM | GI50 [29] 51.9 µM | GI50 [30] 76.2 µM | GI50 [31] 31.3 µM | GI50 [32] 45.5 µM | GI50 [33] 7.85 µM | GI50 [34] 32.2 µM | GI50 [35] 34.5 µM | GI50 [36] > 100 µM | GI50 [37] > 100 µM | GI50 [38] 12 µM | GI50 [39] 23.2 µM | GI50 [40] 15.2 µM | GI50 [41] 10.7 µM | GI50 [42] 28.2 µM | GI50 [43] 5.64 µM | GI50 [44] 28.1 µM | GI50 [45] 29.5 µM | GI50 [46] 24.4 µM | GI50 [47] 53.9 µM | GI50 [48] 22.5 µM | GI50 [49] 50.1 µM | GI50 [50] 28.7 µM | GI50 [51] 40.9 µM | GI50 [52] > 100 µM | GI50 [53] > 100 µM | GI50 [54] 54.9 µM | GI50 [55] 5.67 µM | GI50 [56] > 100 µM | GI50 [57] > 100 µM
48.7 µM: TGI [7]
96 µM: TGI [5]
50.4 µM: TGI [40]
18.5 µM: TGI [12]
41 µM: TGI [33]
32.2 µM: TGI [10]
33.6 µM: TGI [41]
